Measurements published in paper PMC4880283, “Crystal Structures of Putative Sugar Kinases from Synechococcus Elongatus PCC 7942 and Arabidopsis Thaliana” (PLoS ONE, 2016).
Each block holds one compound with its values, some of them ahead of it.

What was measured:
AtXK-1 [1] = biological target: T1, AtXK-1 (Arabidopsis thaliana, UniProt Q8L794); assay: ADP-Glo kinase assay; assay type: biochemical; settings: 100 uM ATP, no sugar, 1 mM MgCl2, 20 mM HEPES pH 7.4, 298 K
T1 construct: gene XK1; mature form (436 aa) without chloroplast transit peptide; forward primer encodes VMSGNKGT; pMCSG7, N-terminal His6 removed by TEV protease, E. coli BL21(DE3)

SePSK [2] = biological target: T2, SePSK (Synechococcus elongatus, UniProt Q31KC7); assay: ADP-Glo kinase assay; assay type: biochemical; settings: 100 uM ATP, no sugar, 1 mM MgCl2, 20 mM HEPES pH 7.4, 298 K
T2 construct: gene PSK; full length (426 aa), pET28-a (Nco I/Xho I), C-terminal His6 tag kept, E. coli BL21(DE3)

AtXK-1 [3] = biological target: T1, AtXK-1; assay: X-ray crystal structure (soak); assay type: binding; settings: crystal soaked in 10 mM AMP-PNP, 20 mM MgCl2; ATP site in domain II
SePSK [4] = biological target: T2, SePSK; assay: X-ray crystal structure, […] A (soak); assay type: binding; settings: crystal soaked in 10 mM AMP-PNP, 20 mM MgCl2; ATP site in domain II
SePSK [5] = biological target: T3, SePSK (Synechococcus elongatus, UniProt Q31KC7, D8A); assay: ADP-Glo kinase assay; assay type: biochemical; settings: 5 mM D-ribulose, 100 uM ATP, 1 mM MgCl2, 20 mM HEPES pH 7.4, 298 K; activity much lower than wild type
T3 construct: gene PSK; full length (426 aa), pET28-a (Nco I/Xho I), C-terminal His6 tag kept, E. coli BL21(DE3)

SePSK [6] = biological target: T4, SePSK (Synechococcus elongatus, UniProt Q31KC7, T11A); assay: ADP-Glo kinase assay; assay type: biochemical; settings: 5 mM D-ribulose, 100 uM ATP, 1 mM MgCl2, 20 mM HEPES pH 7.4, 298 K; activity much lower than wild type
T4 construct: gene PSK; full length (426 aa), pET28-a (Nco I/Xho I), C-terminal His6 tag kept, E. coli BL21(DE3)

SePSK [7] = biological target: T5, SePSK (Synechococcus elongatus, UniProt Q31KC7, D221A); assay: ADP-Glo kinase assay; assay type: biochemical; settings: 5 mM D-ribulose, 100 uM ATP, 1 mM MgCl2, 20 mM HEPES pH 7.4, 298 K; activity much lower than wild type
T5 construct: gene PSK; full length (426 aa), pET28-a (Nco I/Xho I), C-terminal His6 tag kept, E. coli BL21(DE3)

SePSK [8] = biological target: T3, SePSK; assay: surface plasmon resonance (single-cycle kinetics, CM5); assay type: binding; settings: rate constant (off-rate), not an equilibrium Kd; 1:1 Langmuir fit; 20 mM HEPES pH 7.5, 100 mM NaCl; 298 K

T2 sequence (Q31KC7 whole entry): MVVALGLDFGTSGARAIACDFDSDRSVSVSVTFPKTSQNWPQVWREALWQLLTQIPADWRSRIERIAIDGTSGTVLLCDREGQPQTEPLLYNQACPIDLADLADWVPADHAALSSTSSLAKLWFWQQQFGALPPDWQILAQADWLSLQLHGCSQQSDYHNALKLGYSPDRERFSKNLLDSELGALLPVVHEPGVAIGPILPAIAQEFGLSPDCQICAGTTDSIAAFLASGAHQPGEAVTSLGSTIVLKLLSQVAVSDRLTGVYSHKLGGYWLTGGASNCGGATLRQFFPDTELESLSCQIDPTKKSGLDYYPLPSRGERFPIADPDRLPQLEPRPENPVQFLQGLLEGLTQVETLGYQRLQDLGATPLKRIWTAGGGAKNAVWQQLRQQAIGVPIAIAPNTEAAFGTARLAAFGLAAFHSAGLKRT
T1 sequence (Q8L794 43-478): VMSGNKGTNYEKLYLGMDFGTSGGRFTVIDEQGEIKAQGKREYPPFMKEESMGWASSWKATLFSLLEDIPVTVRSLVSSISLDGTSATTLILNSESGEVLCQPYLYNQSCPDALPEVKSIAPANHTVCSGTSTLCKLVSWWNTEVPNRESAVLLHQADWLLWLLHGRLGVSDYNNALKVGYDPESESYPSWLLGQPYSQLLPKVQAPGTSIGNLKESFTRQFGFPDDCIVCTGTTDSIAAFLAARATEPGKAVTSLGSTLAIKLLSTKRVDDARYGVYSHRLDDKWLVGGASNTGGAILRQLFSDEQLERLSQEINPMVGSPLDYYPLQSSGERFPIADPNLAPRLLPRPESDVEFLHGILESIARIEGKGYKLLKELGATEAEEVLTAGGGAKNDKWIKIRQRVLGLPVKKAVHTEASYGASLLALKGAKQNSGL
T3 sequence (Q31KC7 whole entry D8A): as the sequence (Q31KC7 whole entry) above, with D8A counted along it
T5 sequence (Q31KC7 whole entry D221A): as the sequence (Q31KC7 whole entry) above, with D221A counted along it
T4 sequence (Q31KC7 whole entry T11A): as the sequence (Q31KC7 whole entry) above, with T11A counted along it

Structure (SMILES): Nc1ncnc2c1ncn2[C@@H]1O[C@H](COP(=O)(O)OP(=O)(O)OP(=O)(O)O)[C@@H](O)[C@H]1O [ATP]
- ADP-Glo kinase assay (AtXK-1 [1]): both SePSK and AtXK-1 exhibited ATP hydrolysis activity
- ADP-Glo kinase assay (SePSK [2]): both SePSK and AtXK-1 exhibited ATP hydrolysis activity

Structure (SMILES): Nc1ncnc2c1ncn2[C@@H]1O[C@H](COP(=O)(O)OP(=O)(O)NP(=O)(O)O)[C@@H](O)[C@H]1O [AMP-PNP]
- X-ray crystal structure (soak) (AtXK-1 [3]): soaked the crystals of apo-SePSK and apo-AtXK-1 into the reservoir adding AMP-PNP
- X-ray crystal structure, 2.3 A (soak) (SePSK [4]): one SePSK protein molecule is in an asymmetric unit with one AMP-PNP molecule

- Dissociation rate constant (koff) (SePSK [8]): 9 ms^-1
Structure (SMILES): O=C(CO)[C@H](O)[C@H](O)CO [D-ribulose]
- ADP-Glo kinase assay (SePSK [5]): all of these mutants exhibit much lower activity of ATP hydrolysis after adding D-ribulose
- ADP-Glo kinase assay (SePSK [6]): all of these mutants exhibit much lower activity of ATP hydrolysis after adding D-ribulose
- ADP-Glo kinase assay (SePSK [7]): all of these mutants exhibit much lower activity of ATP hydrolysis after adding D-ribulose
